The text below walks through data of patent publication US20230416232A1, “PYRIMIDINE COMPOUNDS, COMPOSITIONS, AND MEDICINAL APPLICATIONS THEREOF” (Blueprint Medicines Corporation, priority 2020, published 2023).

Common to all, as to assay type: cell-based
The target of assay [1] is EGFR(D770_N771insSVD) expressing Ba/F3 stable cell line (Homo sapiens, UniProt P00533, DUP768-770, cells depend on it). The assay can be described thus: Cellular proliferation (Alamar Blue) assay, EGFR(D770_N771insSVD) Ba/F3. Particulars: 72 hr, read-out: D770 IC50. An outline of the steps:
(§1)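 Ba/F3 cells (15,000/well, RPMI + 10% FBS) or A431 cells (5000/well, DMEM + 10% FBS) were seeded for 16-18 h at 37 °C, then treated 72 h with compound at a final 10-0.0005 μM (3-fold dilutions). Alamar Blue was added for 3 h before read-out.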
For orientation: Resazurin is reduced to fluorescent resorufin, in cell work by metabolically active cells.

Assay [2] deals with EGFR (A767_dupASV) expressing Ba/F3 stable cell line (Homo sapiens, UniProt P00533, DUP767-769, cells depend on it). The assay can be described thus: Cellular proliferation (Alamar Blue) assay, EGFR (A767_dupASV) Ba/F3. The note with it: 72 hr, read-out: A767 IC50. An outline of the steps: as §1
A further assay relates to A431 cells. The assay can be described thus: Cellular proliferation (Alamar Blue) assay, A431 cells. The note with it: Homo sapiens, A-431, 72 h, A431 cells; 72 hr; Alamar Blue; read-out: A431 IC50. The gist of the method:
as §1

The target in assay [3] is EGFR (H773insNPH) expressing Ba/F3 stable cell line (Homo sapiens, UniProt P00533, DUP771-773, cells depend on it). The assay can be described thus: Cellular proliferation (Alamar Blue) assay, EGFR (H773insNPH) Ba/F3. Particulars: 72 hr, read-out: NPH IC50. On the procedure:
Cell line details: • 1. EGFR(D770_N771insSVD) expressing Ba/F3 stable cell line • 2. EGFR (A767_dupASV) expressing Ba/F3 stable cell line • 3. A431 cells • 4. EGFR (H773insNPH) expressing Ba/F3 stable cell line • 5. HER2 (A775_G776insYVMA) expressing Ba/F3 stable cell line
• 1. Seed cells at 5000 for A431 and 15,000 cells for Ba/F3 in 100 μL/well in complete media (for A431: DMEM with 10% FBS and for Ba/F3 cells: RPMI with 10% FBS) in 96-well tissue culture plate. Leave outer wells without cells for background measurements. Incubate at 37 degree Celsius in 5% CO2 humidified incubator for 16-18 hours. • 2. Add 0.025 ml of 5X concentration compound dilution or DMSO control. Final compound concentration range is 10-0.0005 μM prepared in 3-fold serial dilutions. Incubate for 72 hr at 37 degree Celsius in 5% CO2 humidified incubator. • 3. Add 0.0125 ml Alamar Blue™ reagent to each well with multi-channel pipette and tap gently on each side of the plate to mix. Incubate for 3 hours at 37 degree Celsius in 5% CO2 humidified incubator. • 4. […] Data analysis was performed using XLfit 5.5.0.5.

The target of assay [4] is HER2 (A775_G776insYVMA) expressing Ba/F3 stable cell line (Homo sapiens, UniProt P04626, DUP772-775, cells depend on it). The assay can be described thus: Cellular proliferation (Alamar Blue) assay, HER2 (A775_G776insYVMA) Ba/F3. Particulars: HER2 (A775_G776insYVMA) Ba/F3 cells; 72 hr; Alamar Blue; read-out: YVMA IC50. An outline of the steps:
as §1

Each structure is given as a SMILES string. Counter-ions that a name gives are not always drawn. Where only a bound is given, the exact number is not on record here.

By IC50 is commonly meant the concentration that inhibits the measured activity by half.

EGFR(D770_N771insSVD) expressing Ba/F3 stable cell line, sequence (P00533 with tags, fused parts or gaps DUP768-770): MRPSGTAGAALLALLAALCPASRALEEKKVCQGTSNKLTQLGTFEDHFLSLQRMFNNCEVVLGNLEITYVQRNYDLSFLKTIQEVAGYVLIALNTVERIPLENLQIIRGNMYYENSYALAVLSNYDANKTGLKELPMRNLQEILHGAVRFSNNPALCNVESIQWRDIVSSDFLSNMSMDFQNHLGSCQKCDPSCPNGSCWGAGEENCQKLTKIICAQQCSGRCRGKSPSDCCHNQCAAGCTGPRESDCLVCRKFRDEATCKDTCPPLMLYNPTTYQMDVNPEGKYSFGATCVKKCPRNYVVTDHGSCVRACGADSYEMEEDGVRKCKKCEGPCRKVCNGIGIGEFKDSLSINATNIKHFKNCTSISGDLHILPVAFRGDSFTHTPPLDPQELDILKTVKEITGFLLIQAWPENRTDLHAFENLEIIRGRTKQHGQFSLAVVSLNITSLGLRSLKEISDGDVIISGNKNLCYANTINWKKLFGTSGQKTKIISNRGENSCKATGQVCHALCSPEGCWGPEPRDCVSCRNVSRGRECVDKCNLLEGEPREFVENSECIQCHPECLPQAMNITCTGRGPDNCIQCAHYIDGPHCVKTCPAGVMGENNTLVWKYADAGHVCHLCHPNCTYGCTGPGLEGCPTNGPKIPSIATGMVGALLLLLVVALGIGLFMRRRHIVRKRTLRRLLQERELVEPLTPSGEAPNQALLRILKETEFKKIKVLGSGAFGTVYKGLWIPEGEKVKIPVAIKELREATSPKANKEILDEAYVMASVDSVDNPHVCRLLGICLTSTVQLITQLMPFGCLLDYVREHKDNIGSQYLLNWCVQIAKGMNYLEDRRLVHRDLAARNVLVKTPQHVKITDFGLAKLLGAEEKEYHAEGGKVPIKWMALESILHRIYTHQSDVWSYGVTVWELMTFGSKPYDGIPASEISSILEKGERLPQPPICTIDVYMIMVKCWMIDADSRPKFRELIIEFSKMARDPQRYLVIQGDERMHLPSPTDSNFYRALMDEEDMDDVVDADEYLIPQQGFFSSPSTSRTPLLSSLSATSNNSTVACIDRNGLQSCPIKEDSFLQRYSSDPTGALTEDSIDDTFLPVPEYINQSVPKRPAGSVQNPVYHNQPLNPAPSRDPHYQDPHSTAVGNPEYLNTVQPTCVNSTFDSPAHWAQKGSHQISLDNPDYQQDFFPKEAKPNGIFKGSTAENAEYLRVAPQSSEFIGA
EGFR (H773insNPH) expressing Ba/F3 stable cell line, sequence (P00533 with tags, fused parts or gaps DUP771-773): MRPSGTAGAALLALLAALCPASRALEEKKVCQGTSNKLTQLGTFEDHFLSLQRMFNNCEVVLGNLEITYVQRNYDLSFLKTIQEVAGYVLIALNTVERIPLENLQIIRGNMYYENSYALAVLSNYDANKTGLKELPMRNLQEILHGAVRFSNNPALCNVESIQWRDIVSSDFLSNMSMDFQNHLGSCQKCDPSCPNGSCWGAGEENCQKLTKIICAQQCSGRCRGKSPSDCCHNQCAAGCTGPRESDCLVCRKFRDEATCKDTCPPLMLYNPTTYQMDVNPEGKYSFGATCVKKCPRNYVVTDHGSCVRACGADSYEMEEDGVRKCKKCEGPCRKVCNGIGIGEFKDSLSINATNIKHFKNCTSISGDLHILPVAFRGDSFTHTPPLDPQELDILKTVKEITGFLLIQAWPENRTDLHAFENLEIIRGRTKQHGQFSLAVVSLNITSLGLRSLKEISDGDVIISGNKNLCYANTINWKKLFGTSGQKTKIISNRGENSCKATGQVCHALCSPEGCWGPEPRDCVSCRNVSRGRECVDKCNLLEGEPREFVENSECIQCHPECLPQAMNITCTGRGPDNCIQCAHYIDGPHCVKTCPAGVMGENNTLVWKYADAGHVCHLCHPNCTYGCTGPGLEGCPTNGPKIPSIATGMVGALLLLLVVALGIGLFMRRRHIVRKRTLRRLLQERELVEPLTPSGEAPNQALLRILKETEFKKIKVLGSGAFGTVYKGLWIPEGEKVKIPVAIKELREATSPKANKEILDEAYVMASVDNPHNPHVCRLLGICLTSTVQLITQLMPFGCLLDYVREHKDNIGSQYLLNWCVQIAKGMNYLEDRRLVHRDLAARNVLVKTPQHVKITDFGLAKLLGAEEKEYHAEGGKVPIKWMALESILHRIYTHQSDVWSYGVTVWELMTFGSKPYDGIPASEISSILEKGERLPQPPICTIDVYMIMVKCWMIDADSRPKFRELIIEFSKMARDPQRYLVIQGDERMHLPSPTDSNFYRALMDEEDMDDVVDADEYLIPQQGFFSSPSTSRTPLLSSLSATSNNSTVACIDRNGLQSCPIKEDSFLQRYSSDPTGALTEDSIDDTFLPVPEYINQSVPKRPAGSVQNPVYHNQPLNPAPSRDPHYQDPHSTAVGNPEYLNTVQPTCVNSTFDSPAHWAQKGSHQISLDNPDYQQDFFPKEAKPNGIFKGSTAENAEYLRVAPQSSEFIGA
HER2 (A775_G776insYVMA) expressing Ba/F3 stable cell line, sequence (P04626 with tags, fused parts or gaps DUP772-775): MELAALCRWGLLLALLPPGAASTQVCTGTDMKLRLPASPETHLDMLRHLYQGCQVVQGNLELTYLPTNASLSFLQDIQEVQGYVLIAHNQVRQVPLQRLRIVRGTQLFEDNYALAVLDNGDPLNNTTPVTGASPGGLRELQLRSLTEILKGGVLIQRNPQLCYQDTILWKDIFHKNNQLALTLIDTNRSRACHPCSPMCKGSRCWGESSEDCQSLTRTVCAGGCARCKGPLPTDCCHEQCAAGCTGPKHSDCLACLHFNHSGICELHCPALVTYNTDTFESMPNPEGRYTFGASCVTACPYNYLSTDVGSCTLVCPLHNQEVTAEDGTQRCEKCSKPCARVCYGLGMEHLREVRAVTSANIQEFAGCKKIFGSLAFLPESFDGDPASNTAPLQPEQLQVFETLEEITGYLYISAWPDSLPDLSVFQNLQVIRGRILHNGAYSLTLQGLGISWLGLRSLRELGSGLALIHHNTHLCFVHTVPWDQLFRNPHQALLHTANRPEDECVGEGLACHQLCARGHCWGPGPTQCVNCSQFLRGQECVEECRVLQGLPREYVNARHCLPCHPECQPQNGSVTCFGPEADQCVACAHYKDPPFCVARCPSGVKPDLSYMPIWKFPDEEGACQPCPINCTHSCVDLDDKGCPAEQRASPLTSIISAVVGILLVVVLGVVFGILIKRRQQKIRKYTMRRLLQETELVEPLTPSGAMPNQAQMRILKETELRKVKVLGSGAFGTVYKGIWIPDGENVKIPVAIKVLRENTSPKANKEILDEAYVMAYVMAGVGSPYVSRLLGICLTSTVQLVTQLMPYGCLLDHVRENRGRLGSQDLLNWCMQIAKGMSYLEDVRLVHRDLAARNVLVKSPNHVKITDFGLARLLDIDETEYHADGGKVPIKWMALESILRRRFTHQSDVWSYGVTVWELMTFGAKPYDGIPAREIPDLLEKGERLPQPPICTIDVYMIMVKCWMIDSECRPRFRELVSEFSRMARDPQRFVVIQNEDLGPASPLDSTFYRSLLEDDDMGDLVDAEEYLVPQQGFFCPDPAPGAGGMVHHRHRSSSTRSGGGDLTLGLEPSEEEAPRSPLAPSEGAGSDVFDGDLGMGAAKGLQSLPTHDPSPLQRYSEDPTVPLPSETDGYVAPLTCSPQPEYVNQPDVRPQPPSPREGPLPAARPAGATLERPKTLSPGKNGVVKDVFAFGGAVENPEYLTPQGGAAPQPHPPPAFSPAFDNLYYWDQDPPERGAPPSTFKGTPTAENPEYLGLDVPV
EGFR (A767_dupASV) expressing Ba/F3 stable cell line, sequence (P00533 with tags, fused parts or gaps DUP767-769): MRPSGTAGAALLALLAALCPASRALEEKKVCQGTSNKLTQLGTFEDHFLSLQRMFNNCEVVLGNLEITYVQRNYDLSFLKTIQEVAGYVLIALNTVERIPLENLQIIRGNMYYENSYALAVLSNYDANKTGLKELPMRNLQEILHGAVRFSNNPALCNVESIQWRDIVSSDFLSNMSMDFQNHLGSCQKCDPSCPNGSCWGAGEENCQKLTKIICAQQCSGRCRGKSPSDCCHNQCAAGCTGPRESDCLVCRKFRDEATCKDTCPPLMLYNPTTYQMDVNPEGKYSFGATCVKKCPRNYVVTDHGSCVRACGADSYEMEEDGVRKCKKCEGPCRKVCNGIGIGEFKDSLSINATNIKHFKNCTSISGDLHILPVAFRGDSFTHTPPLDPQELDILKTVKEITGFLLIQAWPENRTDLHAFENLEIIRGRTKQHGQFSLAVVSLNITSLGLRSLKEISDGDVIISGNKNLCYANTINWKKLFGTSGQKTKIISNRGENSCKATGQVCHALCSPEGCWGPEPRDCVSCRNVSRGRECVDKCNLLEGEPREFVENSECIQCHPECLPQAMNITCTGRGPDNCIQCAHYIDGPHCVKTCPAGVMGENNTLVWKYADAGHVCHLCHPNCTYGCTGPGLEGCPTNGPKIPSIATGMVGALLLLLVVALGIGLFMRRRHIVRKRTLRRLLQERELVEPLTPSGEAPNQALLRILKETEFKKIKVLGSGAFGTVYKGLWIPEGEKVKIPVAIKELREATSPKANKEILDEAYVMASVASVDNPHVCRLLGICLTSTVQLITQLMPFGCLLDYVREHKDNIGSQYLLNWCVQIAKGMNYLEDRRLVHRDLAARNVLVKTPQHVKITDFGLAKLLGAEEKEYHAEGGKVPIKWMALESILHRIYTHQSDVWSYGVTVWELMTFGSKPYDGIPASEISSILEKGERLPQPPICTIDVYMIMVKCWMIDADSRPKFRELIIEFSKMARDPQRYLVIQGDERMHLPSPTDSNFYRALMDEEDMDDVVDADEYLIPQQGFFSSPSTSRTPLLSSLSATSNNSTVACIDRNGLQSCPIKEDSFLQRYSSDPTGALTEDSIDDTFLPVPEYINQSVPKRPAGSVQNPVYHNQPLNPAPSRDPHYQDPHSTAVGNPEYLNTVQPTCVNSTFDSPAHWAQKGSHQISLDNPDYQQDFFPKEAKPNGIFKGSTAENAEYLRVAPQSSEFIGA

In the case of `C=CC(=O)Nc1ccc(F)c(Nc2nc(Nc3cnn(C)c3)ncc2-c2ccc(F)c(C(F)(F)F)c2)c1` [Compound 25, N-(4-fluoro-3-((5-(4-fluoro-3-(trifluoromethyl)phenyl)-2-((1-methyl-1H-pyrazol-4-yl)amino)pyrimidin-4-yl)amino)phenyl)acrylamide], the GI50 in assay [1] amounted to 102 nM; in assay [2], 87 nM; in assay [3] it was 91 nM; in assay [4], 341 nM. Further, in the assay on A431 cells, the IC50 amounted to 49 nM.
On the same counts, the results for `C=CC(=O)Nc1ccc(F)c(Nc2nc(Nc3cnn(C)c3)ncc2-c2cc(F)cc(F)c2)c1` [Compound 26, N-(3-((5-(3,5-difluorophenyl)-2-((1-methyl-1H-pyrazol-4-yl)amino)pyrimidin-4-yl)amino)-4-fluorophenyl)acrylamide] are 27 nM, 35 nM, 31 nM, 112 nM and 443 nM.
The like results for `C=CC(=O)Nc1ccc(F)c(Nc2nc(Nc3cnn(C)c3)ncc2-c2cc(F)cc(C(F)(F)F)c2)c1` [Compound 27, N-(4-fluoro-3-((5-(3-fluoro-5-(trifluoromethyl)phenyl)-2-((1-methyl-1H-pyrazol-4-yl)amino)pyrimidin-4-yl)amino)phenyl)acrylamide] were, in that order, 35 nM, 31 nM, 55 nM, 150 nM and 73 nM.
The like results for `C=CC(=O)Nc1ccc(F)c(Nc2nc(Nc3cnn(C)c3)ncc2-c2ccc(N(C)C)c(F)c2)c1` [Compound 28, N-(3-((5-(4-(dimethylamino)-3-fluorophenyl)-2-((1-methyl-1H-pyrazol-4-yl)amino)pyrimidin-4-yl)amino)-4-fluorophenyl)acrylamide] were, in that order, 29 nM, 27 nM, 47 nM, 271 nM and 193 nM.
For `C=CC(=O)Nc1ccc(F)c(Nc2nc(Nc3cnn(C)c3)ncc2-c2cnc(OC)c(Cl)c2)c1` [Compound 31, N-(3-((5-(5-chloro-6-methoxypyridin-3-yl)-2-((1-methyl-1H-pyrazol-4-yl)amino)pyrimidin-4-yl)amino)-4-fluorophenyl)acrylamide trifluoroacetate], the GI50 in assay [1] was 50 nM; in assay [2], 34 nM; in assay [3], 92 nM; in assay [4] it was 94 nM. Further, the IC50 in the assay with A431 cells came to 582 nM.
On the same counts, the results for `C=CC(=O)Nc1ccc(F)c(Nc2nc(Nc3cnn(C)c3)ncc2-c2cc(Cl)cc(Cl)c2)c1` [Compound 32, N-(3-((5-(3,5-dichlorophenyl)-2-((1-methyl-1H-pyrazol-4-yl)amino)pyrimidin-4-yl)amino)-4-fluorophenyl)acrylamide] are 294 nM, 159 nM, 160 nM, 1160 nM and greater than 10000 nM.
`C=CC(=O)Nc1ccc(F)c(Nc2nc(Nc3cnn(C)c3)ncc2-c2ccc(Cl)c(F)c2)c1` [Compound 33, N-(3-((5-(4-chloro-3-fluorophenyl)-2-((1-methyl-1H-pyrazol-4-yl)amino)pyrimidin-4-yl)amino)-4-fluorophenyl)acrylamide]: the GI50 in assay [1] turned out to be 20 nM; in assay [2], 21 nM; in assay [3], 52 nM; in assay [4] it was 73 nM. The IC50 in the assay with A431 cells was determined as 35 nM.
On the same counts, the results for `C=CC(=O)Nc1ccc(F)c(Nc2nc(Nc3cnn(C)c3)ncc2-c2ccc(C(F)(F)F)c(F)c2)c1` [Compound 35, N-(4-fluoro-3-((5-(3-fluoro-4-(trifluoromethyl)phenyl)-2-((1-methyl-1H-pyrazol-4-yl)amino)pyrimidin-4-yl)amino)phenyl)acrylamide] are 35 nM, 99 nM, 84 nM, 99 nM and 45 nM.
The like results for `C=CC(=O)Nc1ccc(F)c(Nc2nc(Nc3cnn(C)c3)ncc2-c2ccc(C(F)F)c(F)c2)c1` [Compound 37, N-(3-((5-(4-(difluoromethyl)-3-fluorophenyl)-2-((1-methyl-1H-pyrazol-4-yl)amino)pyrimidin-4-yl)amino)-4-fluorophenyl)acrylamide] were, in that order, 30 nM, 34 nM, 51 nM, 93 nM and 51 nM.
Consider `C=CC(=O)Nc1cccc(Nc2nc(Nc3cnn(C)c3)ncc2-c2cc(F)cc(C(F)F)c2)c1` [Compound 43, N-(3-((5-(3-(difluoromethyl)-5-fluorophenyl)-2-((1-methyl-1H-pyrazol-4-yl)amino)pyrimidin-4-yl)amino)phenyl)acrylamide], for which the GI50 in assay [1] came out at 35 nM; in assay [2], 41 nM; in assay [3], 24 nM; in assay [4], 84 nM. The IC50 with A431 cells was found to be 707 nM.
The like results for `C=CC(=O)Nc1ccc(F)c(Nc2nc(Nc3cnn(C)c3)ncc2-c2cnc(Cl)c(F)c2)c1` [Compound 45, N-(3-((5-(6-chloro-5-fluoropyridin-3-yl)-2-((1-methyl-1H-pyrazol-4-yl)amino)pyrimidin-4-yl)amino)-4-fluorophenyl)acrylamide] were, in that order, 7 nM, 10 nM, 25 nM, 16 nM and 35 nM.
On the same counts, the results for `C=CC(=O)Nc1ccc(F)c(Nc2nc(Nc3cnn(C)c3)ncc2-c2cnc(C)c(Cl)c2)c1` [Compound 46, N-(3-((5-(5-chloro-6-methylpyridin-3-yl)-2-((1-methyl-1H-pyrazol-4-yl)amino)pyrimidin-4-yl)amino)-4-fluorophenyl)acrylamide] are 17 nM, 29 nM, 30 nM, 34 nM and 102 nM.
On the same counts, the results for `C=CC(=O)Nc1ccc(F)c(Nc2nc(Nc3cnn(C)c3)ncc2-c2cnc(F)c(C(F)(F)F)c2)c1` [Compound 47, N-(4-fluoro-3-((5-(6-fluoro-5-(trifluoromethyl)pyridin-3-yl)-2-((1-methyl-1H-pyrazol-4-yl)amino)pyrimidin-4-yl)amino)phenyl)acrylamide] are 21 nM, 34 nM, 20 nM, 25 nM and 46 nM.
Turning to `C=CC(=O)Nc1cccc(Nc2nc(Nc3cnn(C)c3)ncc2-c2ccc(F)c(Cl)c2)c1` [Compound 49, N-(3-((5-(3-chloro-4-fluorophenyl)-2-((1-methyl-1H-pyrazol-4-yl)amino)pyrimidin-4-yl)amino)phenyl)acrylamide], the GI50 in assay [1] turned out to be 38 nM; in assay [2], 44 nM; in assay [3], 27 nM; in assay [4] it was 65 nM. The IC50 with A431 cells was determined as 246 nM.
On the same counts, the results for `C=CC(=O)Nc1ccc(F)c(Nc2nc(Nc3cnn(C)c3)ncc2-c2ccc(Cl)c(Cl)c2)c1` [Compound 50, N-(3-((5-(3,4-dichlorophenyl)-2-((1-methyl-1H-pyrazol-4-yl)amino)pyrimidin-4-yl)amino)-4-fluorophenyl)acrylamide] are 32 nM, 26 nM, 61 nM, 86 nM and 70 nM.
